From patent US9663460B2, “Sulfur derivatives as chemokine receptor modulators” (ALLERGAN, INC., priority 2010, dated 2017)

target: CCR2 (Homo sapiens (Human), UniProt P41597); test: Calcium activity assayed on the FLIPR Tetra in HEK-Gqi5 cells stably expressing CCR2; format: cell-based; details: FLIPR Tetra calcium assay
Method: HEK-Gqi5 cells stably expressing CCR2 were cultured in (DMEM high glucose, 10% FBS, 1% PSA, 400 μg/ml geneticin and 50 μg/ml hygromycin. Appropriate positive control chemokines (MCP-1, MIP1A or RANTES) was used as the positive control agonist for screening compound-induced calcium activity assayed on the FLIPR^Tetra. The drug plates were prepared in 384-well microplates using the EP3 and the MuItiPROBE robotic liquid handling systems. Compounds were synthesized and tested for CCR^2 activity.

Sequence of CCR2 (P41597 whole entry, species assumed): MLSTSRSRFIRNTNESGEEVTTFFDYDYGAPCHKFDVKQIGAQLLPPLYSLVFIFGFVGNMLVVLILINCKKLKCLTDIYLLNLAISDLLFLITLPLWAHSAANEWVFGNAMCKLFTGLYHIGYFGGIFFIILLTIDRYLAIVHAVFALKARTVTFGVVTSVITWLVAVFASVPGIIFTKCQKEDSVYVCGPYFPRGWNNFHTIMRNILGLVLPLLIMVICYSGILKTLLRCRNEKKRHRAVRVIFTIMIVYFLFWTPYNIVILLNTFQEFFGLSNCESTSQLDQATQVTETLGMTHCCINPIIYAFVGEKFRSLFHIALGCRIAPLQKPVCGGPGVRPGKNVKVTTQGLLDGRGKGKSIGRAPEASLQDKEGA

| Compound | CCR2 % ANTAGONISM [%] | IC50 [µM] |
| --- | --- | --- |
| CSc1ccc(Cl)cc1NS(=O)(=O)c1ccc(Cl)cc1 [4-chloro-N-[5-chloro-2-(methylthio)phenyl]benzenesulfonamide] | 94 | 0.406 |
| O=S(=O)(Nc1cc(Cl)ccc1[S+]([O-])Cc1ncc[nH]1)c1ccc(Cl)c(C(F)(F)F)c1 (centres unmarked) [4-chloro-N-{5-chloro-2-[(1H-imidazol-2-ylmethyl)sulfinyl]phenyl}-3-(trifluoromethyl)benzenesulfonamide] | 109 | 0.163 |
| O=S(=O)(Cc1ncc[nH]1)c1ccc(Cl)cc1NS(=O)(=O)c1ccc(Cl)c(C(F)(F)F)c1 [4-chloro-N-{5-chloro-2-[(1H-imidazol-2-ylmethyl)sulfonyl]phenyl}-3-(trifluoromethyl)benzenesulfonamide] | 113 | 0.249 |
| O=S(=O)(Nc1cc(Cl)ccc1SCc1ncc[nH]1)c1ccc(Cl)c(C(F)(F)F)c1 [4-chloro-N-{5-chloro-2-[(1H-imidazol-2-ylmethyl)thio]phenyl}-3-(trifluoromethyl)benzenesulfonamide] | 84 | 0.19 |
| O=S(=O)(Nc1cc(Cl)ccc1[S+]([O-])Cc1c[nH]cn1)c1ccc(Cl)c(C(F)(F)F)c1 (centres unmarked) [4-chloro-N-{5-chloro-2-[(1H-imidazol-4-ylmethyl)sulfinyl]phenyl}-3-(trifluoromethyl)benzenesulfonamide] | 111 | 0.158 |
| O=S(=O)(Nc1cc(Cl)ccc1SCCO)c1ccc(Cl)c(C(F)(F)F)c1 [4-chloro-N-{5-chloro-2-[(2-hydroxyethyl)thio]phenyl}-3-(trifluoromethyl)benzenesulfonamide] | 88 | 0.153 |
| O=S(=O)(Nc1cc(Cl)ccc1SCc1ccccn1)c1ccc(Cl)c(C(F)(F)F)c1 [4-chloro-N-{5-chloro-2-[(pyridin-2-ylmethyl)thio]phenyl}-3-(trifluoromethyl)benzenesulfonamide] | 79 | 0.199 |
| C[S+]([O-])c1ccc(Cl)cc1NS(=O)(=O)c1cc2cc(Cl)ccc2o1 (centres unmarked) [5-chloro-N-[5-chloro-2-(methylsulfinyl)phenyl]-1-benzofuran-2-sulfonamide] | 92 | 0.655 |
| CS(=O)(=O)c1ccc(Cl)cc1NS(=O)(=O)c1cc2cc(Cl)ccc2o1 [5-chloro-N-[5-chloro-2-(methylsulfonyl)phenyl]-1-benzofuran-2-sulfonamide] | 74 | 2.05 |
| CC(=O)Nc1nc(C[S+]([O-])c2ccc(Cl)cc2NS(=O)(=O)c2cc3ccccc3o2)cs1 (centres unmarked) [Compound 236, N-{-4-[({2-[(1-benzofuran-2-ylsulfonyl)amino]-4-chlorophenyl}sulfinyl)methyl]-1,3-thiazol-2-yl}acetamide] | 79 | 2.69 |
| CC(=O)Nc1nc(CS(=O)(=O)c2ccc(Cl)cc2NS(=O)(=O)c2cc3ccccc3o2)cs1 [Compound 237, N-{-4-[({2-[(1-benzofuran-2-ylsulfonyl)amino]-4-chlorophenyl}sulfonyl)methyl]-1,3-thiazol-2-yl}acetamide] | 87 |  |
| CC(=O)NCC[S+]([O-])c1ccc(Cl)cc1NS(=O)(=O)c1ccc(Cl)c(C(F)(F)F)c1 (centres unmarked) [N-(2-{[4-chloro-2-({[4-chloro-3-(trifluoromethyl)phenyl]sulfonyl}amino)phenyl]sulfinyl}ethyl)acetamide] | 97 |  |
| CC(=O)NCCS(=O)(=O)c1ccc(Cl)cc1NS(=O)(=O)c1ccc(Cl)c(C(F)(F)F)c1 [N-(2-{[4-chloro-2-({[4-chloro-3-(trifluoromethyl)phenyl]sulfonyl}amino)phenyl]sulfonyl}ethyl)acetamide] | 98 | 5.19 |
| Nc1nc(C[S+]([O-])c2ccc(Cl)cc2NS(=O)(=O)c2cc3ccccc3o2)cs1 (centres unmarked) [N-(2-{[(2-amino-1,3-thiazol-4-yl)methyl]sulfinyl}-5-chlorophenyl)-1-benzofuran-2-sulfonamide] | 100 | 0.262 |
| Nc1cc(CS(=O)(=O)c2ccc(Cl)cc2NS(=O)(=O)c2cc3ccccc3o2)cc[n+]1[O-] [N-(2-{[(2-amino-1-oxidopyridin-4-yl)methyl]sulfonyl}-5-chlorophenyl)-1-benzofuran-2-sulfonamide] | 54 | 9.96 |
| Nc1cc(C[S+]([O-])c2ccc(Cl)cc2NS(=O)(=O)c2cc3ccccc3o2)ccn1 (centres unmarked) [N-(2-{[(2-aminopyridin-4-yl)methyl]sulfinyl}-5-chlorophenyl)-1-benzofuran-2-sulfonamide] | 101 | 0.865 |
| Nc1cc(CS(=O)(=O)c2ccc(Cl)cc2NS(=O)(=O)c2cc3ccccc3o2)ccn1 [N-(2-{[(2-aminopyridin-4-yl)methyl]sulfonyl}-5-chlorophenyl)-1-benzofuran-2-sulfonamide] | 101 | 0.364 |
| Nc1cc(C[S+]([O-])c2ccc(Cl)cc2NS(=O)(=O)c2cc3ccccc3o2)n[nH]1 (centres unmarked) [N-(2-{[(5-amino-1H-pyrazol-3-yl)methyl]sulfinyl}-5-chlorophenyl)-1-benzofuran-2-sulfonamide] | 99 | 1.38 |
| Nc1cc(CS(=O)(=O)c2ccc(Cl)cc2NS(=O)(=O)c2cc3ccccc3o2)n[nH]1 [N-(2-{[(5-amino-1H-pyrazol-3-yl)methyl]sulfonyl}-5-chlorophenyl)-1-benzofuran-2-sulfonamide] | 98 | 1.87 |
| Nc1nnc(C[S+]([O-])c2ccc(Cl)cc2NS(=O)(=O)c2cc3ccccc3o2)[nH]1 (centres unmarked) [N-(2-{[(5-amino-4H-1,2,4-triazol-3-yl)methyl]sulfinyl}-5-chlorophenyl)-1-benzofuran-2-sulfonamide] | 48 |  |

Further lines, results first:

| CCR2 % ANTAGONISM [%] | IC50 [µM] | Compound |
| --- | --- | --- |
| 108 | 0.051 | O=S(=O)(Cc1c[nH]cn1)c1ccc(Cl)cc1NS(=O)(=O)c1ccc(Cl)c(C(F)(F)F)c1 [4-chloro-N-{5-chloro-2-[(1H-imidazol-4-ylmethyl)sulfonyl]phenyl}-3-(trifluoromethyl)benzenesulfonamide] |
| 83 | 0.068 | O=S(=O)(Nc1cc(Cl)ccc1SCc1c[nH]cn1)c1ccc(Cl)c(C(F)(F)F)c1 [4-chloro-N-{5-chloro-2-[(1H-imidazol-4-ylmethyl)thio]phenyl}-3-(trifluoromethyl)benzenesulfonamide] |
| 101 | 0.146 | O=S(=O)(Nc1cc(Cl)ccc1[S+]([O-])CCO)c1ccc(Cl)c(C(F)(F)F)c1 (centres unmarked) [4-chloro-N-{5-chloro-2-[(2-hydroxyethyl)sulfinyl]phenyl}-3-(trifluoromethyl)benzenesulfonamide] |
| 96 | 0.095 | O=S(=O)(CCO)c1ccc(Cl)cc1NS(=O)(=O)c1ccc(Cl)c(C(F)(F)F)c1 [4-chloro-N-{5-chloro-2-[(2-hydroxyethyl)sulfonyl]phenyl}-3-(trifluoromethyl)benzenesulfonamide] |
| 101 | 0.107 | O=S(=O)(Nc1cc(Cl)ccc1[S+]([O-])C1CCC(O)C1)c1ccc(Cl)c(C(F)(F)F)c1 (centres unmarked) [4-chloro-N-{5-chloro-2-[(3-hydroxycyclopentyl)sulfinyl]phenyl}-3-(trifluoromethyl)benzenesulfonamide] |
| 97 | 0.076 | O=S(=O)(Nc1cc(Cl)ccc1S(=O)(=O)C1CCC(O)C1)c1ccc(Cl)c(C(F)(F)F)c1 (centres unmarked) [4-chloro-N-{5-chloro-2-[(3-hydroxycyclopentyl)sulfonyl]phenyl}-3-(trifluoromethyl)benzenesulfonamide] |
| 83 | 0.092 | O=S(=O)(Nc1cc(Cl)ccc1[S+]([O-])Cc1ccccn1)c1ccc(Cl)c(C(F)(F)F)c1 (centres unmarked) [4-chloro-N-{5-chloro-2-[(pyridin-2-ylmethyl)sulfinyl]phenyl}-3-(trifluoromethyl)benzenesulfonamide] |
| 97 | 0.112 | O=S(=O)(Nc1cc(Cl)ccc1[S+]([O-])Cc1cccnc1)c1ccc(Cl)c(C(F)(F)F)c1 (centres unmarked) [4-chloro-N-{5-chloro-2-[(pyridin-3-ylmethyl)sulfinyl]phenyl}-3-(trifluoromethyl)benzenesulfonamide] |
| 85 | 0.094 | O=S(=O)(Nc1cc(Cl)ccc1SCc1cccnc1)c1ccc(Cl)c(C(F)(F)F)c1 [4-chloro-N-{5-chloro-2-[(pyridin-3-ylmethyl)thio]phenyl}-3-(trifluoromethyl)benzenesulfonamide] |
| 102 | 0.083 | Nc1nc(CS(=O)(=O)c2ccc(Cl)cc2NS(=O)(=O)c2cc3ccccc3o2)cs1 [N-(2-{[(2-amino-1,3-thiazol-4-yl)methyl]sulfonyl}-5-chlorophenyl)-1-benzofuran-2-sulfonamide] |
| 102 | 0.042 | Nc1nc(CSc2ccc(Cl)cc2NS(=O)(=O)c2cc3ccccc3o2)cs1 [N-(2-{[(2-amino-1,3-thiazol-4-yl)methyl]thio}-5-chlorophenyl)-1-benzofuran-2-sulfonamide] |
| 100 | 0.08 | Nc1cc(CSc2ccc(Cl)cc2NS(=O)(=O)c2cc3ccccc3o2)ccn1 [N-(2-{[(2-aminopyridin-4-yl)methyl]thio}-5-chlorophenyl)-1-benzofuran-2-sulfonamide] |
| 105 | 0.025 | Nc1cc(CSc2ccc(Cl)cc2NS(=O)(=O)c2cc3ccccc3o2)n[nH]1 [N-(2-{[(5-amino-1H-pyrazol-3-yl)methyl]thio}-5-chlorophenyl)-1-benzofuran-2-sulfonamide] |
| 103 | 0.032 | Nc1nnc(CSc2ccc(Cl)cc2NS(=O)(=O)c2cc3ccccc3o2)[nH]1 [N-(2-{[(5-amino-4H-1,2,4-triazol-3-yl)methyl]thio}-5-chlorophenyl)-1-benzofuran-2-sulfonamide] |
